Consider 16 compounds from US20250270212A1, “CHIMERIC COMPOUNDS USEFUL IN TREATING DISEASES” (Padarn Therapeutics, Inc., priority 2021, published 2025).

For assay [1], the target named is recombinant PARP1 (AA662-1014) protein (Homo sapiens (Human), UniProt P09874). As to the kind of experiment: Tracer displacement fluorescence polarization assay. The settings on record: displacement of AlexaFluor488 tracer from NAD+-binding site, PARP1 25 nM. The method, then:
Example B. Tracer Displacement Fluorescence Polarization Assays
Displacement of AlexaFlour488 marked tracer from the NAD+-binding site of recombinant PARP1 (AA662-1014) protein (OriGene, Cat #: AR09368PU-L) was measured in vitro using Fluorescence polarization assay. The reaction was carried out in assay buffer (50 mM TRIS-HCl pH 7.4-7.8, 150 mM NaCl, 10 mM MgCl2, 0.001% Triton-X). 2×PARP1 (final concentration 25 nM) was diluted in 1× Assay buffer and 10 μl of the solution per well was added into 384-well Black Non-Treated Reaction plate (Corning, Cat #4511). Plates were centrifuged for 1 min at 200 g. The compounds were prepared in a 384-well Diamond Well Plate (Axygen, Cat #P-384-120SQ-C-S) as 400× solutions in DMSO and were transferred into Reaction plate using the Biomek FX liquid handling system with intermediate dilution down to 10× working solution in assay buffer in a separate 384-well Diamond Well Plate (Axygen, Cat #P-384-120SQ-C-S) (2 μl per well). Plates were centrifuged for 1 min at 200 g and incubated for 15 min at room temperature in the dark. Then 8 μL per well of 2.5× Tracer AlexaFluor488 (final concentration 1 nM) diluted in 1× Assay buffer was added into Reaction plate. 1× Assay buffer was used to make blank samples for instrument calculations. Plates were incubated for 30 minutes at room temperature in the dark. Fluorescence polarization was measured using Microplate Reader (BMG, ClarioStar Plus). The % tracer displacement was used to calculate the IC50 values. The IC50 values are shown in Table A, wherein “A” corresponds to IC50<0.01 μM, “B” corresponds to 0.01 μM≤IC50<0.1 μM, “C” 0.1 μM≤IC50<[…], and “D” corresponds to […].

A further assay has as its target recombinant Wee1 protein (Homo sapiens (Human), UniProt P30291). As to the kind of experiment: Wee1 enzymatic activity inhibition, ADP-Glo luminescence assay. Type of assay: biochemical. The settings on record: recombinant Wee1, PolyE4Y1 substrate, 1 h room temperature. The method, then:
Example A. Primary Assay Used to Determine Potency of Wee1 Enzymatic Activity Inhibition
Compound activity was determined using recombinant Wee1 protein (BPS, Cat #40412) and PolyE4Y1 Substrate (Poly(Glu,Tyr) sodium salt, Sigma, Cat #P0275-25MG) in an in vitro enzymatic reaction. The enzymatic assay used to determine activity was a Luminescence assay using a Microplate Reader (BMG, ClarioStar Plus). The enzymatic reaction was carried out in assay buffer (40 mM TRIS-HCl pH 7.4-7.6, 20 mM MgCl2, 0.05 mM DTT, 0.1 mg/ml BSA, 5 mM MnCl2). The compounds were dispensed on a 384 well Diamond Well Plate (Axigen, Cat #P-384-120SQ-C-S) using the Biomek FX liquid handling system at 100× solutions of compounds in DMSO. 2×Wee1-PolyE4Y1 mix (final concentration 0.85 ng/μl of Wee1 and 0.2 μg/μl of PolyE4Y1) was prepared in 1× Assay buffer and 5.5 μl of mixture per well was added into 384w white Reaction plate with NBS (Corning, Cat #4513). 5.5 μl of PolyE4Y1 substrate w/o Wee1 in 1× buffer was used for negative control. Plates were centrifuged for 1 min at 100 g. Next step the Compounds were added to Reaction plate using Biomek station via following steps: 1 μl of 100× compounds (in DMSO) were mixed thoroughly with 49 μl of 2×10 μM ATP in Assay Buffer, then 5.5 μl of this mixture was added to Reaction plate with 5.5 μl of Wee1-PolyE4Y1 mix. Plates were centrifuged for 1 min at 100 g and incubated for 1 h at room temperature. Next 3 μL of ADP-Glo reagent (Promega, ADP-Glo™ Kinase Assay, Cat #V9102) per well was added. Plates were incubated for 30 minutes at room temperature. Then 6 μL of Kinase detection reagent (Promega, ADP-Glo™ Kinase Assay, Cat #V9102) per well was added and the Luminescence was measured using Microplate Reader. The % inhibition was then used to calculate the IC50 values. The IC50 values are shown in Table A, wherein “A” corresponds to IC50<0.01 μM, “B” corresponds to 0.01 μM≤IC50<0.1 μM, “C” 0.1 μM≤IC50<1 μM, and “D” corresponds to […].
A general note: ADP-Glo turns the ADP formed in a reaction into a luminescent signal.

recombinant Wee1 protein, sequence (P30291 whole entry): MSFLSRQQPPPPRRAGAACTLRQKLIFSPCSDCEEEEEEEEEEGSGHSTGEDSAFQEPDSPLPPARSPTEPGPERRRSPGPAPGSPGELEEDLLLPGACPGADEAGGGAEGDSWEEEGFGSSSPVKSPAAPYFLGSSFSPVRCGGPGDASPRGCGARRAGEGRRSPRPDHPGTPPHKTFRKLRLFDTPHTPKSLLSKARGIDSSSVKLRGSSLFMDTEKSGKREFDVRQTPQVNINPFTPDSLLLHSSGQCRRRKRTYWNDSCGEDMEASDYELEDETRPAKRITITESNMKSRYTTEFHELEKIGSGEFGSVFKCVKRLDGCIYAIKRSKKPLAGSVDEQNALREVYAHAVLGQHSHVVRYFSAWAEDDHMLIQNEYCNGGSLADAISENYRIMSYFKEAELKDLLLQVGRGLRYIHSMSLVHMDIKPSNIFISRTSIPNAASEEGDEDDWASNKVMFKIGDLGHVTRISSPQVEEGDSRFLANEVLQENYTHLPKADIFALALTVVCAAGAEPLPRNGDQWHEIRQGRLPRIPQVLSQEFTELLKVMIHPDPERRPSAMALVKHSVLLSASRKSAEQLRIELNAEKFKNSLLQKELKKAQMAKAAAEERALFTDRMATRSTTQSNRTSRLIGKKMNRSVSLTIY
recombinant PARP1 (AA662-1014) protein, sequence (P09874 662-1014): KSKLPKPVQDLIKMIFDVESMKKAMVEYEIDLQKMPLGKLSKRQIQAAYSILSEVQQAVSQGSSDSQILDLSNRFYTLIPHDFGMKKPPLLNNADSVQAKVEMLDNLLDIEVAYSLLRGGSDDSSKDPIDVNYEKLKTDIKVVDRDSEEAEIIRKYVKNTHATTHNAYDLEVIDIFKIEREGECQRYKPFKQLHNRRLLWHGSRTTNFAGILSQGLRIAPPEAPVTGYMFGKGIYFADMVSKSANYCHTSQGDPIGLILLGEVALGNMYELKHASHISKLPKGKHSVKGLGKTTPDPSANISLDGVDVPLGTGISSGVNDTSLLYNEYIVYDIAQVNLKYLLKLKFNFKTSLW

As for `Cn1c2nc(Nc3ccc(N4CCC(c5nc6cccc(C(N)=O)c6[nH]5)CC4)cc3)ncc2c(=O)n1-c1ccccn1` [Compound 91], in assay [1], the EC50 (in general, the midpoint of the concentration-response curve) was 10 to 100 nM.

Take `C=CCn1c(=O)c2cnc(Nc3ccc(N4CCN(Cc5ccc(-c6[nH]c7cc(F)cc8c7c6CCNC8=O)cc5)CC4)cc3)nc2n1-c1ccccn1` [Compound 39, 2-[4-[[4-[4-[[2-Allyl-3-oxo-1-(2-pyridyl)pyrazolo[3,4-d]pyrimidin-6-yl]amino]phenyl]piperazin-1-yl]methyl]phenyl]-6-fluoro-3,10-diazatricyclo[6.4.1.04,13]trideca-1,4,6,8(13)-tetraen-9-one]: the EC50 in assay [1] lay in the range of 10 to 100 nM.

On to `C=CCn1c(=O)c2cnc(NC3CCN(Cc4ccc(-c5[nH]c6cc(F)cc7c6c5CCNC7=O)cc4)CC3)nc2n1-c1cccc(C(C)(C)O)n1` [Compound 47, 2-(4-{[4-({2-Allyl-1-[6-(1-hydroxy-1-methylethyl)pyridin-2-yl]-3-oxo-2,3-dihydro-1H-pyrazolo[3,4-d]pyrimidin-6-yl}amino)piperidin-1-yl]methyl}phenyl)-8-fluoro-1,3,4,5-tetrahydro-6H-azepino[5,4,3-cd]indol-6-one], for which the EC50 in assay [1] is less than 10 nM.

With `COCCn1c(=O)c2cnc(Nc3ccc(N4CCN(C(=O)c5cc(Cc6n[nH]c(=O)c7ccccc67)ccc5F)CC4)cc3)nc2n1-c1cccc(C(C)(C)O)n1` [Compound 13, 4-(4-Fluoro-3-{[4-(4-{[1-[6-(1-hydroxy-1-methylethyl)pyridin-2-yl]-2-(2-methoxyethyl)-3-oxo-2,3-dihydro-1H-pyrazolo[3,4-d]pyrimidin-6-yl]amino}phenyl)piperazin-1-yl]carbonyl}benzyl)phthalazin-1(2H)-one], the values for the EC50 (on recombinant Wee1 protein; in assay [1]) were 10 to 100 nM and less than 10 nM, respectively.

Consider `Cn1c(=O)c2cnc(Nc3ccc(N4CCN(Cc5ccc(-c6[nH]c7cc(F)cc8c7c6CCNC8=O)cc5)CC4)cc3)nc2n1-c1ccccn1` [Compound 36, 8-Fluoro-2-{4-[(4-{4-[(2-methyl-3-oxo-1-pyridin-2-yl-2,3-dihydro-1H-pyrazolo[3,4-d]pyrimidin-6-yl)amino]phenyl}piperazin-1-yl)methyl]phenyl}-1,3,4,5-tetrahydro-6H-azepino[5,4,3-cd]indol-6-one], for which the figures for the EC50 (on recombinant Wee1 protein; in assay [1]) were 10 to 100 nM and less than 10 nM, respectively.

On to `Cn1c(=O)c2cnc(Nc3ccc(N4CCC(n5cc6cccc(C(N)=O)c6n5)CC4)cc3)nc2n1-c1ccccn1` [Compound 83], for which the EC50 (on recombinant Wee1 protein; in assay [1]) was 10 to 100 nM throughout.

Take `C=CCn1c(=O)c2cnc(NC3CCN(C(=O)c4cc(Cc5n[nH]c(=O)c6ccccc56)ccc4F)CC3)nc2n1-c1cccc(C(C)(C)O)n1` [Compound 4, 4-(3-{[4-({2-Allyl-1-[6-(1-hydroxy-1-methylethyl)pyridin-2-yl]-3-oxo-2,3-dihydro-1H-pyrazolo[3,4-d]pyrimidin-6-yl}amino)piperidin-1-yl]carbonyl}-4-fluorobenzyl)phthalazin-1(2H)-one]: the concentration giving a half-maximal response (EC50) in assay [1] lay within 100 to 1000 nM.

As to `Cn1c2nc(Nc3ccc(N4CCN(C(=O)c5cc(Cc6n[nH]c(=O)c7ccccc67)ccc5F)CC4)cc3)ncc2c(=O)n1-c1ccccn1` [Compound 12, 4-{4-Fluoro-3-[(4-{4-[(1-methyl-3-oxo-2-pyridin-2-yl-2,3-dihydro-1H-pyrazolo[3,4-d]pyrimidin-6-yl)amino]phenyl}piperazin-1-yl)carbonyl]benzyl}phthalazin-1(2H)-one], the EC50 in assay [1] was less than 10 nM.

Regarding `Cn1c(=O)c2cnc(N3CCN(C(=O)c4cc(Cc5n[nH]c(=O)c6ccccc56)ccc4F)CC3)nc2n1-c1ccccn1` [Compound 5, 4-(4-Fluoro-3-{[4-(2-methyl-3-oxo-1-pyridin-2-yl-2,3-dihydro-1H-pyrazolo[3,4-d]pyrimidin-6-yl)piperazin-1-yl]carbonyl}benzyl)phthalazin-1(21)-one], the half-maximal effective concentration (EC50) in assay [1] was in the range of 10 to 100 nM.

Regarding `Cn1c(=O)c2cnc(Nc3ccc(N4CCN(Cc5cc(Cc6n[nH]c(=O)c7ccccc67)ccc5F)CC4)cc3)nc2n1-c1cccc(C(C)(C)O)n1` [Compound 8, 4-[4-Fluoro-3-({4-[4-({1-[6-(1-hydroxy-1-methylethyl)pyridin-2-yl]-2-methyl-3-oxo-2,3-dihydro-1H-pyrazolo[3,4-d]pyrimidin-6-yl}amino)phenyl]piperazin-1-yl}methyl)benzyl]phthalazin-1(2H)-one], the EC50 in assay [1] fell in the range of 100 to 1000 nM.

Take `C=CCn1c(=O)c2cnc(Nc3ccc(N4CCN(Cc5cc(Cn6c(=O)[nH]c(=O)c7c(F)cccc76)ccc5F)CC4)cc3)nc2n1-c1cccc(C(C)(C)O)n1` [Compound 34, 1-[3-({4-[4-({2-Allyl-1-[6-(1-hydroxy-1-methylethyl)pyridin-2-yl]-3-oxo-2,3-dihydro-1H-pyrazolo[3,4-d]pyrimidin-6-yl}amino)phenyl]piperazin-1-yl}methyl)-4-fluorobenzyl]-5-fluoroquinazoline-2,4(1H,3H)-dione]: the half-maximal effective concentration (EC50) in assay [1] is 100 to 1000 nM.

`Cn1c2nc(Nc3ccc(N4CCN(C(=O)c5cc(Cn6c(=O)[nH]c(=O)c7c(F)cccc76)ccc5F)CC4)cc3)ncc2c(=O)n1-c1ccccn1` [Compound 17, 5-Fluoro-1-{4-fluoro-3-[(4-{4-[(1-methyl-3-oxo-2-pyridin-2-yl-2,3-dihydro-1H-pyrazolo[3,4-d]pyrimidin-6-yl)amino]phenyl}piperazin-1-yl)carbonyl]benzyl}quinazoline-2,4(1H,3H)-dione]: in assay [1], the EC50 is less than 10 nM.

`C=CCn1c(=O)c2cnc(Nc3ccc(N4CCN(C(=O)c5cc(Cn6c(=O)[nH]c(=O)c7c(F)cccc76)ccc5F)CC4)cc3)nc2n1-c1ccccn1` [Compound 28, 1-{3-[(4-{4-[(2-Allyl-3-oxo-1-pyridin-2-yl-2,3-dihydro-1H-pyrazolo[3,4-d]pyrimidin-6-yl)amino]phenyl}piperazin-1-yl)carbonyl]-4-fluorobenzyl}-5-fluoroquinazoline-2,4(1H,3H)-dione]: the EC50 in assay [1] is less than 10 nM.

On to `C=CCn1c(=O)c2cnc(N3CCN(C(=O)c4cc(Cc5n[nH]c(=O)c6ccccc56)ccc4F)CC3)nc2n1-c1cccc(C(C)(C)O)n1` [Compound 2, 4-{3-[(4-{2-Allyl-1-[6-(1-hydroxy-1-methylethyl)pyridin-2-yl]-3-oxo-2,3-dihydro-1H-pyrazolo[3,4-d]pyrimidin-6-yl}piperazin-1-yl)carbonyl]-4-fluorobenzyl}phthalazin-1(2H)-one], for which the EC50 in assay [1] fell in the range of 10 to 100 nM.

For `C=CCn1c(=O)c2cnc(NCCNC(=O)c3cc(Cc4n[nH]c(=O)c5ccccc45)ccc3F)nc2n1-c1cccc(C(C)(C)O)n1` [Compound 6, N-[2-({2-Allyl-1-[6-(1-hydroxy-1-methylethyl)pyridin-2-yl]-3-oxo-2,3-dihydro-1H-pyrazolo[3,4-d]pyrimidin-6-yl}amino)ethyl]-2-fluoro-5-[(4-oxo-3,4-dihydrophthalazin-1-yl)methyl]benzamide], the EC50 in assay [1] lay within 100 to 1000 nM.

As to `Cn1c(=O)c2cnc(Nc3ccc(N4CCN(C(=O)c5cc(Cc6n[nH]c(=O)c7ccccc67)ccc5F)CC4)cc3)nc2n1-c1cccc(C(C)(C)O)n1` [Compound 7, 4-[4-Fluoro-3-({4-[4-({1-[6-(1-hydroxy-1-methylethyl)pyridin-2-yl]-2-methyl-3-oxo-2,3-dihydro-1H-pyrazolo[3,4-d]pyrimidin-6-yl}amino)phenyl]piperazin-1-yl}carbonyl)benzyl]phthalazin-1(2H)-one], in assay [1], the EC50 is less than 10 nM.
